# Laboratory results: paper PMC6447871, “Design, Synthesis, Molecular Modeling, In Silico ADME Studies and Anti-HIV-1 Assay of New Diazocoumarin Derivatives” (Iranian Journal of Pharmaceutical Research : IJPR, 2018)
# Columns and labels:
# [1] = system: HIV-1; test: microbe, parasite or virus in culture; format: cell-based; details: Human immunodeficiency virus 1, NL43, M-HeLa, 72 h, read-out: (%) Inhibition rate of p24 expression
# Protocol: (§1) Anti-HIV-1 activity of synthesized compounds was evaluated in single cycle replication assay which was evaluated in our laboratory and reported previously ([32]-[35]). In this assay, the single-cycle replicable HIV NL4-3 virions (200 ng p24) were inoculated concurrently with compounds in different concentrations to the Hela cells. The inhibition rate (%) of p24 expression was measured by capture ELISA (Biomerieux, France) 72 hours after inoculation. Percentage inhibition of p24 expression in treated culture was calculated as inhibition rate of p24 (%). The XTT (sodium3-[1(phenylaminocarbonyl)-3,4-tetrazolium]-bis(4-methoxy-6-nitro)benzene sulfonic acid) proliferation assay was conducted to evaluate the cellular toxicity according to kit instructions ([36], [37]). Cytotoxicity test was performed exactly after the p24 assay.
# (§2) Compounds 11a-h were assayed for anti-HIV-1 activity in single cycle replication method which reflects only one round of infection. Anti-HIV activity of compounds was measured as inhibition rate (%) of p24 expression in Hela cells cultures. Azidothymidine (AZT) was the positive control in the test. The cytotoxic properties were measured in the same cells by XTT proliferation assay and reported as percentage of cell viability.
# [2] = in vitro; details: human
# Protocol: as §1, §2
# [3] = system: HIV-1; parameters: method as in earlier work; details: read-out: EC50 (anti-HIV-1 activity); cited from earlier work
# [4] = parameters: method as in earlier work; details: read-out: CC50 (cytotoxicity); cited from earlier work
Structure (SMILES),inhibition at 100 µM [1] [%],"viability at 72 h, 100 µM [2] [%]",EC50 [3] [µM],CC50 [4] [µM],melting point
"Cc1cn([C@H]2C[C@H](N=[N+]=[N-])[C@@H](CO)O2)c(=O)[nH]c1=O [AZT, Azidothymidine, reference compound]",58,92,–,–,–
O=c1c(-c2nnc(SCc3ccccc3F)o2)c[nH]c2c(-c3ccccc3)cccc12 [Compound 3],–,–,50,> 100,–
"CSc1nnc(-c2ccc(N=Nc3c(O)c4ccccc4oc3=O)cc2)o1 [Compound 11a, 4-Hydroxy-3-((4-(5-(methylthio)-1,3,4-oxadiazol-2-yl)phenyl)diazenyl)-2H-chromen-2-one]",79,51,–,–,211.6 to 212.1 °C
"CCSc1nnc(-c2ccc(N=Nc3c(O)c4ccccc4oc3=O)cc2)o1 [Compound 11b, 3-((4-(5-(Ethylthio)-1,3,4-oxadiazol-2-yl)phenyl)diazenyl)-4-hydroxy-2H-chromen-2-one]",5,100,–,–,290 to 291 °C (dec.)
"CCCSc1nnc(-c2ccc(N=Nc3c(O)c4ccccc4oc3=O)cc2)o1 [Compound 11c, 4-Hydroxy-3-((4-(5-(propylthio)-1,3,4-oxadiazol-2-yl)phenyl)diazenyl)-2H-chromen-2-one]",32,93,–,–,205.5 to 206.8 °C
"O=c1oc2ccccc2c(O)c1N=Nc1ccc(-c2nnc(SCc3ccccc3)o2)cc1 [Compound 11d, 3-((4-(5-(Benzylthio)-1,3,4-oxadiazol-2-yl)phenyl)diazenyl)-4-hydroxy-2H-chromen-2-one]",6,94,–,–,243.1 to 243.8 °C
"O=c1oc2ccccc2c(O)c1N=Nc1ccc(-c2nnc(SCc3ccccc3Cl)o2)cc1 [Compound 11e, 3-((4-(5-(2-Chlorobenzylthio)-1,3,4-oxadiazol-2-yl)phenyl)diazenyl)-4-hydroxy-2H-chromen-2-one]",33,75,–,–,236.8 to 237.5 °C
"O=c1oc2ccccc2c(O)c1N=Nc1ccc(-c2nnc(SCc3ccc(Cl)cc3)o2)cc1 [Compound 11f, 3-((4-(5-(4-Chlorobenzylthio)-1,3,4-oxadiazol-2-yl)phenyl)diazenyl)-4-hydroxy-2H-chromen-2-one]",52,100,–,–,260.8 to 263.8 °C
"O=c1oc2ccccc2c(O)c1N=Nc1ccc(-c2nnc(SCc3ccccc3F)o2)cc1 [Compound 11g, 3-((4-(5-(2-Fluorobenzylthio)-1,3,4-oxadiazol-2-yl)phenyl)diazenyl)-4-hydroxy-2H-chromen-2-one]",22,74,–,–,240.1 to 242.2 °C
"O=c1oc2ccccc2c(O)c1N=Nc1ccc(-c2nnc(SCc3ccc(F)cc3)o2)cc1 [Compound 11h, 3-((4-(5-(4-Fluorobenzylthio)-1,3,4-oxadiazol-2-yl)phenyl)diazenyl)-4-hydroxy-2H-chromen-2-one]",25,100,–,–,246.6 to 251.6 °C
